Measurements reported in patent publication US20190151289A1, “Identification of Small Molecule Inhibitors of Jumonji AT-Rich Interactive Domain 1A (JARID1A) Histone Demethylase” (YALE UNIVERSITY, priority 2016, published 2019).
Where two headings read alike, the source gives them in different places.

What was measured:
MCF10A cells = assay: WST-1 cell proliferation assay, MCF10A; assay type: cell-based, human; conditions: 5 days of treatment
Protocol: WST-1 reagent from Roche Applied Sciences (11644807001) was used to measure cell number before drug addition and after 3 or 5 days of growth using previously described methods (Sayegh et al., 2013, J. Biol. Chem. 9408-9417). Cells were seeded in 96-well plates at the following number of cells per well: HeLa (2000), MCF7 (2000), ZR-75-1 (1000), MCF10A (1000), MDA-MB-231(5000). Assays were performed in technical quadruplicates and biological triplicates. DMSO was used at 0.1%. Relative absorbance was calculated by subtracting the average background (media only) signal, dividing by the average signal on day 0, and then dividing by the average day 5/day 0 ratio for the DMSO controls. Significance was calculated by unpaired, two-tailed student's t-test using GraphPad Prism 6.0 software.

[1] = tested on: H3K4 methylation in MDA-MB-231 cells; assay: Western blot of global H3K4 methylation, MDA-MB-231; assay type: cell-based, human; conditions: MDA-MB-231, 72 hr treatment
Protocol: Sf21 insect cells were cultured at 27° C. in Grace's medium (Gibco) with 10% fetal bovine serum (FBS) and 1% penicillin/streptomycin. HeLa cells were cultured in DMEM (Gibco) with 10% FBS and 1% penicillin/streptomycin. BT474, MCF7, MDA-MB-231, PC9 and ZR-75-1 cells were cultured in RPMI 1640 (Gibco) with 10% FBS and 1% penicillin/streptomycin. MCF10A cells were cultured as using previously described methods (Sayegh et al., 2013, J. Biol. Chem. 9408-9417). All human cells were cultured at 37° C. and 5% carbon dioxide. HeLa and MCF7 cell lines were authenticated using short tandem repeat profiling performed at the DNA Analysis Facility on Science Hill at Yale University. All other human cell lines used were within 10 passages after being obtained from the American Type Culture Collection.
Cells were lysed using previously described methods (Lin et al., 2011, Proc. Natl. Acad. Sci. U.S.A. 108:13379-13386). Histones were separated by centrifugation, resuspended in Laemmeli buffer, and sonicated. Protein concentration of cell lysates was measured by Bradford assay. Samples in Laemmeli buffer were boiled 10 minutes at 95° C. and loaded onto 7% (whole cell lysates) or 18% (histones) SDS-PAGE gels. […] Signal was quantified using ImageJ software.

full-length FLAG-KDM5A = target: T1, full-length FLAG-KDM5A (Homo sapiens, UniProt P29375); assay: AlphaScreen KDM5A demethylation assay (bio-H3K4me3 peptide); assay type: biochemical
T1 construct: Sf21 insect cells were infected with baculovirus to express full-length FLAG-KDM5A; made in house; host or cells: Sf21 insect cells (baculovirus)
Protocol: Histone demethylase assays were performed using previously described methods (Sayegh et al., 2013, J. Biol. Chem. 9408-9417), with the exception of all enzyme reactions containing 125 μM α-KG. Enzymes were used at the following approximate concentrations in validation experiments, chosen based on their activity in AlphaScreen assays: 19 nM FLAG-KDM5A, 15 nM FLAG-KDM5B, 6 nM FLAG-KDM5C, 29 nM His-FLAG-KDM6A, and 16 nM FLAG-KDM6B. 24 nM FLAG-KDM5A was used for Km determination experiments. Reactions were carried out for 1 hour, or were stopped by addition of 30 mM EDTA every 5 minutes for determining enzyme kinetics. Km values were calculated using the Michaelis-Menten non-linear regression analysis on GraphPad Prism 6.0 software. The concentration of DMSO in demethylation reactions was 0.05%. For reactions with catalase, catalase (Sigma C30) or an equal volume of dilution buffer was added to the peptide-containing buffer before addition of the demethylase. The final concentration of catalase in the reactions was 0.01 mg/ml.
The AlphaScreen general IgG (protein A) detection kit from PerkinElmer Life Sciences was used as described previously (Sayegh et al., 2013, J. Biol. Chem. 9408-9417). The luminescence emission was recorded at 570 nm using the AlphaScreen optic module on a Pherastar (BMG Labtech) or Envision (PerkinElmer Life Sciences) microplate reader.
8,861 compounds from the ChemBridge MW-Set, ChemBridge DIVERSet, MicroSource Gen-Plus, MicroSource Pure Natural Products, NIH Clinical Collection, and Enzo Epigenetics libraries were screened for inhibition of FLAG-KDM5A demethylase activity. Compounds were dissolved in DMSO and added at 20 μM to 384-well white plates (Corning 3574) containing 64 nM bio-H3K4me3 peptide in demethylase buffer prior to addition of 13 nM FLAG-KDM5A. Hits were selected at a threshold of three standard deviations (˜30% inhibition). A counter-screen was performed with the hits to eliminate any non-specific compounds. For this, 20 μM compounds were added to 64 nM bio-H3K4me2 peptide in demethylase buffer with no enzyme. Any hits that interfered with the positive signal detection were eliminated. Dose-response curves were performed on selected hits using 0.1-11 μM of compound. Further validation of top hits was performed using 5 μM of each compound or a dose-response curve using 0.05-50 μM of the compound.
Fresh compounds were ordered to confirm identity. IC50 curves were generated for YUKA1 and YUKA2 using 0.05-50 μM compound in 1 hour reactions. IC50 values were calculated by log transformation and non-linear regression log (inhibitor) versus response (three parameters) using Graphpad Prism 6.0 software. Percent activity of KDM5A was calculated for each data point by subtracting the background (average H3K4me3 signal) and dividing by the average signal for the DMSO controls. α-KG competition tests were performed using 150 nM H3K4me3 peptide and 50 μM Fe(II).
AlphaScreen technology (Perkin Elmer) was utilized to perform a screen for small molecule inhibitors of KDM5A. The assay was comprised of two steps, a demethylation reaction followed by detection of the product. A biotinylated H3K4me3 peptide was used as substrate in the demethylation reaction with KDM5A in the presence or absence of small molecule inhibitors. The presence of peptide product (H3K4me1/2) was detected using a product-specific antibody and beads. For this, acceptor beads coated in protein A bound to the antibody, which recognized the peptide product. Donor beads coated in streptavidin bound biotin on the peptide substrate. […]

T1 sequence (P29375 whole entry): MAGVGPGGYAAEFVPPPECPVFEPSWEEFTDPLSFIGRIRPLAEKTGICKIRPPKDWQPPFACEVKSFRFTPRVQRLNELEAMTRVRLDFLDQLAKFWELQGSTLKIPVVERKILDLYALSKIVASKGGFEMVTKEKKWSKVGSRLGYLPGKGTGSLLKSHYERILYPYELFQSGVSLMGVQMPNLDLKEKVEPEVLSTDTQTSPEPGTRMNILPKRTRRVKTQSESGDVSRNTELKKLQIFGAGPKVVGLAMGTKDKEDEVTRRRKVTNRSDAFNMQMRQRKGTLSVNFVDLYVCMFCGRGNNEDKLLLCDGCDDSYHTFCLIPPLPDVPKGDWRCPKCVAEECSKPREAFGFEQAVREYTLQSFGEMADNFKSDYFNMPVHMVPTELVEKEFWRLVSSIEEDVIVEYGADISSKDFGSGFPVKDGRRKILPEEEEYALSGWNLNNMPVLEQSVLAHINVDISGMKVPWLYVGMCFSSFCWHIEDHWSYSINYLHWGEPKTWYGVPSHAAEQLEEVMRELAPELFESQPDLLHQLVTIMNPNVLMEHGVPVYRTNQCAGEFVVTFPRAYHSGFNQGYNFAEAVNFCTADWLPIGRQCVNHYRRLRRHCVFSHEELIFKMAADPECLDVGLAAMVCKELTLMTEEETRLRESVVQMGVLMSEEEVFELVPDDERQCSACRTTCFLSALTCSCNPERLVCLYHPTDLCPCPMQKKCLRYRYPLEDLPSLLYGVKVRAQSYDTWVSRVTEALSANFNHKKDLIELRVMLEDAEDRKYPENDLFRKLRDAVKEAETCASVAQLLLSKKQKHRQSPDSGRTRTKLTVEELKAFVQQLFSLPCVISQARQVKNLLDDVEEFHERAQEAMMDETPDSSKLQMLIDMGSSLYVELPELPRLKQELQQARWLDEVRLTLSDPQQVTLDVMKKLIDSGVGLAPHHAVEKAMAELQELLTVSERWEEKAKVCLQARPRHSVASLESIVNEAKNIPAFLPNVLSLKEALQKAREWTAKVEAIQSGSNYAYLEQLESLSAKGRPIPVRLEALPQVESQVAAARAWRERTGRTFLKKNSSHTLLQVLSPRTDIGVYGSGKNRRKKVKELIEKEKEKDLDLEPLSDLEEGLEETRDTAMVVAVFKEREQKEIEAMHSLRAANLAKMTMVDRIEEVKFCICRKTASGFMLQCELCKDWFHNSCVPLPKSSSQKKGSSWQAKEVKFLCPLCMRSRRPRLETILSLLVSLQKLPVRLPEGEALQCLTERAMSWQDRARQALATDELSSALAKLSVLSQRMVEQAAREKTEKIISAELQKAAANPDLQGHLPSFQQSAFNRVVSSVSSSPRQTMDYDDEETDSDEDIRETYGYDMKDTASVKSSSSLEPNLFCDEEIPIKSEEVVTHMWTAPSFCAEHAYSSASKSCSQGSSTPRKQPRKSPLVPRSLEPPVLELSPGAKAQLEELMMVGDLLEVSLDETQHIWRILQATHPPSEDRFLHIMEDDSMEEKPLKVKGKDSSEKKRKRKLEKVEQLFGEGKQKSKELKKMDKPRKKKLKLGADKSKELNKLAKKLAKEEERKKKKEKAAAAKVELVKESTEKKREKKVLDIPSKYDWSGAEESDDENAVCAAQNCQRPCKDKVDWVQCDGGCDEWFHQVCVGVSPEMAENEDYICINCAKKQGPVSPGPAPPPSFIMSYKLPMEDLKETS

With `C=CCOc1c(CNn2cnnc2S)cccc1OC` [YUKA1, 4-([2-(allyloxy)-3-methoxybenzyl]amino)-4H-1,2,4-triazole-3-thiol] the cell proliferation (MCF10A cells) was “did not hinder cell proliferation”, the H3K4 methylation [1] was “only minor changes” and the “mode of KDM5A inhibition with respect to Fe(II)” value (full-length FLAG-KDM5A) was “uncompetitive with respect to Fe(II)”. The “KDM5A enzyme inhibition at low Fe(II)” value (full-length FLAG-KDM5A; 5 μM Fe(II)) was “too weak to generate robust IC50 curves”, the “effect of catalase on inhibitory potency against KDM5A” value (full-length FLAG-KDM5A; 0.01 mg/ml catalase) was “did not affect the inhibitory potency” and the IC50 (full-length FLAG-KDM5A; 0.05-50 μM compound, 1 hour reactions, read-out: average in vitro IC50 against KDM5A) was 2.66 µM. The “change of KDM5A IC50 with α-KG concentration” value (full-length FLAG-KDM5A; 16-fold range of α-KG, 150 nM H3K4me3 peptide, 50 μM Fe(II)) was “did not change significantly” and the IC50 (full-length FLAG-KDM5A; inhibitors found by high throughput screening, read-out: KDM5A IC50) was 1.32 µM.
